Test results published in PubChem BioAssay (NCI).
“And” between values parts separate entries of the source, which are not always exact repeats. Equal entries are not always repeated.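 Growth conditions: 96-well plates. Treatment: test compound, 48 hours, 5 concentrations. Analysis: linear interpolation between bracketing concentrations; unreached endpoints set to highest concentration. GI50 = concentration required for 50% inhibition of growth. TGI is the concentration that stops growth completely.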 Where a SMILES comes first, the peptide text is derived from it. The star is where a group is joined. Cbz = O=C(OCc1ccccc1)*

Assays:
Test in all cases: growth of human tumour cells (NCI), 48 h
A498 renal = tested on: A498 renal
CAKI-1 renal = tested on: CAKI-1 renal
COLO 205 colon = tested on: COLO 205 colon
HCT-116 colon = tested on: HCT-116 colon
K-562 leukemia = tested on: K-562 leukemia
MDA-MB-435 = tested on: MDA-MB-435
OVCAR-5 ovarian = tested on: OVCAR-5 ovarian
SK-MEL-28 melanoma = tested on: SK-MEL-28 melanoma
SK-OV-3 ovarian = tested on: SK-OV-3 ovarian
SN12C renal = tested on: SN12C renal
UO-31 renal = tested on: UO-31 renal

SMILES | TGI (A498 renal) | TGI (CAKI-1 renal) | TGI (COLO 205 colon) | GI50 (HCT-116 colon) | TGI (HCT-116 colon) | GI50 (K-562 leukemia) | TGI (K-562 leukemia) | GI50 (MDA-MB-435) | TGI (MDA-MB-435) | GI50 (OVCAR-5 ovarian) | TGI (OVCAR-5 ovarian) | GI50 (SK-MEL-28 melanoma) | TGI (SK-MEL-28 melanoma) | GI50 (SK-OV-3 ovarian) | TGI (SK-OV-3 ovarian) | GI50 (SN12C renal) | TGI (SN12C renal) | GI50 (UO-31 renal) | TGI (UO-31 renal)
CC(=O)c1ccc2c(c1)C(=O)c1sc(C(C)=O)cc1C2=O | 50 µM | 4.48 µM | 7.94 µM | 0.349 µM | 14.3 µM and 12.3 µM | 0.264 µM | 50 µM and > 100 µM | 0.176 µM | 2.63 µM and 0.33 µM | 1.87 µM | 2.36 µM and 3.92 µM | 1.85 µM | 14.2 µM and 3.61 µM | 5.66 µM | 14.3 µM and 21.4 µM | 0.953 µM | 2.18 µM and 4.76 µM | 1.4 µM | 2.15 µM and 2.69 µM
O=[N+]([O-])c1c(F)c(F)c2c(c1F)N(CCCCCl)c1ccccc1S2 | 21.1 µM | 19.3 µM | 27.5 µM | – | 11.2 µM | – | 4.74 µM | – | 20.2 µM | – | 33.6 µM | – | 10.9 µM | – | 34 µM | – | 20.2 µM | – | 30.5 µM
O=c1[nH]nc(Cc2ccc(Cl)cc2)n1/N=C/c1cccs1 | > 100 µM | > 100 µM | > 100 µM | – | > 100 µM | – | > 100 µM | – | > 100 µM | – | > 100 µM | – | > 100 µM | – | > 100 µM | – | > 100 µM | – | > 100 µM
S=C1NCCN1C(=S)Nc1ccccc1 | > 100 µM | > 100 µM | > 100 µM | – | > 100 µM | – | > 100 µM | – | > 100 µM | – | > 100 µM | – | > 100 µM | – | > 100 µM | – | > 100 µM | – | > 100 µM
CCCCCCCCCCCC(=O)OC[C@@H](C[As](=O)(O)O)OC(=O)CCCCCCCCCCC | 24.3 µM | 23.8 µM | 36.6 µM | – | 21.7 µM | – | > 55.1 µM | – | 15 µM | – | 30.8 µM | – | 11.3 µM | – | 26.2 µM | – | 19.8 µM | – | 27.9 µM
CC(=O)Nc1c(C(=N)C#N)ncn1CCO | > 100 µM | > 100 µM | > 100 µM | – | > 100 µM | – | > 100 µM | – | > 100 µM | – | > 100 µM | – | > 100 µM | – | > 100 µM | – | > 100 µM | – | –
Cc1n[n+](Cc2ccccc2)c2sc(N)nn12 | > 100 µM | > 100 µM | > 100 µM | – | > 100 µM | – | > 100 µM | – | > 100 µM | – | > 100 µM | – | > 100 µM | – | > 100 µM | – | > 100 µM | – | > 100 µM
O=C(Cn1c2ccc(Br)cc2c2nc3ccccc3nc21)NNC(=S)NC1CCCCC1 | 35.1 µM | 38.6 µM | 26 µM | – | 26.9 µM | – | 34.2 µM | – | 34.2 µM | – | 38.9 µM | – | 31.6 µM | – | 70.8 µM | – | 35.6 µM | – | 22.3 µM
CN1CCN(/C(N)=C(\C#N)C(=O)Nc2ccc(Cl)cc2)CC1 | > 100 µM | > 100 µM | 35.2 µM | – | > 100 µM | – | > 100 µM | – | > 100 µM | – | > 100 µM | – | > 100 µM | – | > 100 µM | – | > 100 µM | – | > 100 µM
O=C1/C(=C\c2cccc(Oc3ccccc3)c2)S(=O)(=O)C(c2ccccc2)N1c1cccc(Cl)c1 (configuration not stated) | > 100 µM | > 100 µM | > 100 µM | – | > 100 µM | – | > 100 µM | – | > 100 µM | – | > 100 µM | – | > 100 µM | – | > 100 µM | – | > 100 µM | – | > 100 µM
c1ccc2c3[nH]c(c2c1)=Nc1ccc(cc1)-c1nc2ccc(cc2o1)N=c1[nH]c(c2ccccc12)=Nc1ccc2nc(oc2c1)-c1ccc(cc1)N=3 | > 100 µM | > 100 µM | 67.8 µM | – | > 100 µM | – | 51.5 µM | – | > 100 µM | – | > 100 µM | – | > 100 µM | – | > 100 µM | – | > 100 µM | – | 45.5 µM
CCOC(=O)CCC(NC(=O)OCc1ccccc1)C(=O)NC(CCC(=O)OCC)C(=O)OCC (configuration not stated) (Cbz-Glu(OEt)-Glu(OEt)-OEt; configuration not given here) | > 100 µM | > 100 µM | > 100 µM | – | > 100 µM | – | > 100 µM | – | > 100 µM | – | > 100 µM | – | > 100 µM | – | > 100 µM | – | > 100 µM | – | > 100 µM
CN1CCCOC(c2ccc(Cl)cc2)O1 (configuration not stated) | > 100 µM | > 100 µM | > 100 µM | – | > 100 µM | – | > 100 µM | – | > 100 µM | – | > 100 µM | – | > 100 µM | – | > 100 µM | – | > 100 µM | – | > 100 µM
O=C1CC(=O)NC(=NN2C(=O)/C(=C/c3ccc(Cl)c(Cl)c3)N=C2c2ccccc2)N1 | 62.9 µM | > 100 µM | 34.1 µM | – | 38 µM | – | 32.5 µM | – | > 100 µM | – | > 100 µM | – | 78 µM | – | > 100 µM | – | 34.8 µM | – | > 100 µM
OC(C/C=N/N=C/CC(O)(C(F)(F)Cl)C(F)(F)Cl)(C(F)(F)Cl)C(F)(F)Cl | > 10 µM | > 10 µM | > 10 µM | – | > 10 µM | – | > 10 µM | – | > 10 µM | – | – | – | > 10 µM | – | > 10 µM | – | > 10 µM | – | > 10 µM
N[C@H](Cc1ccc2oc3cc(=O)c4ccccc4c-3nc2c1)C(=O)O | > 100 µM | > 100 µM | > 100 µM | – | > 100 µM | – | 71.2 µM | – | 30.3 µM | – | > 100 µM | – | > 100 µM | – | > 100 µM | – | > 100 µM | – | > 100 µM
Cc1ccc(CSC(N)=Nc2ccccc2)cc1C | 33.2 µM | 60.9 µM | 41.5 µM | – | 32.1 µM | – | 61.7 µM | – | 30.7 µM | – | 56.4 µM | – | 45.1 µM | – | 54.7 µM | – | 38.5 µM | – | –
